One block for each compound: values may come before it. The source made the active and inactive calls. The rule behind the calls is not given here.
Tests used:
[1] = Clearance in dog at 3 mg/kg, iv; format: ADME, organism-based, Canis lupus familiaris; design: dose 3 mg/kg, route intravenous; conditions: in vivo
[2] = Clearance in dog at 10 mg/kg, po; format: ADME, organism-based, Canis lupus familiaris; design: dose 10 mg/kg, route oral; conditions: in vivo
[3] = Volume of distribution at steady state in dog at 3 mg/kg, iv; format: ADME, organism-based, Canis lupus familiaris; design: dose 3 mg/kg, route intravenous; conditions: in vivo, read-out: Vdss
[4] = Oral bioavailability in rat at 2.7 mg/kg; format: ADME, organism-based; conditions: in vivo
[5] = Oral bioavailability in dog at 10 mg/kg; format: ADME, organism-based, Canis lupus familiaris; conditions: in vivo
[6] = Terminal half life in dog at 3 mg/kg, iv; format: ADME, organism-based, Canis lupus familiaris; design: dose 3 mg/kg, route intravenous; conditions: in vivo, read-out: beta t1/2 (converted)
[7] = Half life in dog at 2.7 mg/kg, po; format: ADME, organism-based, Canis lupus familiaris; design: dose 2.7 mg/kg, route oral; conditions: in vivo
[8] = Half life in dog at 3 mg/kg, po; format: ADME, organism-based, Canis lupus familiaris; design: dose 3 mg/kg, route oral; conditions: in vivo
[9] = Clearance in rat; format: ADME, organism-based; conditions: in vivo
[10] = Half life in iv dosed rat; format: ADME, organism-based; conditions: in vivo
[11] = Oral bioavailability in rat; format: ADME, organism-based; conditions: in vivo
[12] = Chemical stability of the compound at pH 1; format: physicochemical; conditions: buffer
[13] = target: Platelet-derived growth factor receptor beta (Homo sapiens, UniProt P09619); experiment: Inhibition of PDGFRbeta phosphorylation by cell based assay
Platelet-derived growth factor receptor beta, sequence (P09619 whole entry): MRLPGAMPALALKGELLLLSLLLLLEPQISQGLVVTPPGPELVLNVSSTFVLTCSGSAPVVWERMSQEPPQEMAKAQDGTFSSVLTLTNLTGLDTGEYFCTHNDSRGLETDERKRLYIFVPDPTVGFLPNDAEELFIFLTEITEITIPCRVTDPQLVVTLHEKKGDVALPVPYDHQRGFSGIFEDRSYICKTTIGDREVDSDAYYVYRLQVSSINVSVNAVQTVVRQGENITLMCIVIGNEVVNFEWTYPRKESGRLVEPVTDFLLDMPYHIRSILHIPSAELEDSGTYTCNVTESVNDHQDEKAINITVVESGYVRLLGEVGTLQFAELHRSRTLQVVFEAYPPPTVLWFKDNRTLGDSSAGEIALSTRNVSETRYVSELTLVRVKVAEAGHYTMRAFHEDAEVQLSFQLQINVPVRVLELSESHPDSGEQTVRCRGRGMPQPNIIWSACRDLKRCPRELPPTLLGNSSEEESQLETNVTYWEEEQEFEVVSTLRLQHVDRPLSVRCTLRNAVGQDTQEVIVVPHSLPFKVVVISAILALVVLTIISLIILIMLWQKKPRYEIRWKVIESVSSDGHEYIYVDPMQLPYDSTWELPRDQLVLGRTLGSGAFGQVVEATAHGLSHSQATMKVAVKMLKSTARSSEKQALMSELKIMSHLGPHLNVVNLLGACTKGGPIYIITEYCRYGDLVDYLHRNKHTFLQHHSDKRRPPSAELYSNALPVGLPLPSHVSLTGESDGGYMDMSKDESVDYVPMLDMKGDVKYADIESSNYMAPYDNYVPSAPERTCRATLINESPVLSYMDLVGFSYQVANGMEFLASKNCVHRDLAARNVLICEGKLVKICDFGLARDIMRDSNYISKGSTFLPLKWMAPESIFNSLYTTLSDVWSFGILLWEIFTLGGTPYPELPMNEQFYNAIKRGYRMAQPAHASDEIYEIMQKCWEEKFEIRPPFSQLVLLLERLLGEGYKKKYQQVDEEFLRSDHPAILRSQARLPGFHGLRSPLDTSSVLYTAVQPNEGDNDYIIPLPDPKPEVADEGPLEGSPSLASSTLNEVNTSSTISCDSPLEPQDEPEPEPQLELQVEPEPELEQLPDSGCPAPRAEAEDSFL

[14] = target: Macrophage colony-stimulating factor 1 receptor (Homo sapiens, UniProt P07333); experiment: Inhibition of CSF1R phosphorylation by cell based assay
Macrophage colony-stimulating factor 1 receptor, sequence (P07333 whole entry): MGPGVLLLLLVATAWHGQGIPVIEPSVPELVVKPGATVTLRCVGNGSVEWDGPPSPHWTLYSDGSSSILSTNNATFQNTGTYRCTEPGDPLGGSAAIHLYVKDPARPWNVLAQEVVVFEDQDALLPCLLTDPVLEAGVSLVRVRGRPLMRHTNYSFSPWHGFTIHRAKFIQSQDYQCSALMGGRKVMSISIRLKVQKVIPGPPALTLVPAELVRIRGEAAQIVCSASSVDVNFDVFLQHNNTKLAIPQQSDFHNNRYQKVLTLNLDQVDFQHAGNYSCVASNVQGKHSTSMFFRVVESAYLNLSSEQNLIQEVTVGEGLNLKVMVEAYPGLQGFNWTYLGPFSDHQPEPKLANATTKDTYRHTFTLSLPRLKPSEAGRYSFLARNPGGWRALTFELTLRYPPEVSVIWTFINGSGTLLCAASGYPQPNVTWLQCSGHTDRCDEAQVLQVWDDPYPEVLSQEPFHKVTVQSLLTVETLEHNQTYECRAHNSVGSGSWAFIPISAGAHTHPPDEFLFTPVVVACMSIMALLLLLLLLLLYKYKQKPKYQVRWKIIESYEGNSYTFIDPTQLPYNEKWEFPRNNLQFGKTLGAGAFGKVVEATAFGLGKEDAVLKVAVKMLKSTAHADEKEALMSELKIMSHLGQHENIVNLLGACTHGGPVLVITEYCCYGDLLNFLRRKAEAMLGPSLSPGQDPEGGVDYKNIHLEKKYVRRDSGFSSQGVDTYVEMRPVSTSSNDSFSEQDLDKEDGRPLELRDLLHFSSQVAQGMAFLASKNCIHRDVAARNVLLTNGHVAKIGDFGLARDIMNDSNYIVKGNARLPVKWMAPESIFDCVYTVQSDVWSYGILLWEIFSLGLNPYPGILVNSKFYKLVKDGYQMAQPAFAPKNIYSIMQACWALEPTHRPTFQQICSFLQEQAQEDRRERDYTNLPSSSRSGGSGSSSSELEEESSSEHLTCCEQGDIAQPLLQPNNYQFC

[15] = target: T1, Receptor-type tyrosine-protein kinase FLT3 (Homo sapiens, UniProt P36888); experiment: Inhibition of FLT3 phosphorylation by cell based assay
T1 sequence (P36888 whole entry): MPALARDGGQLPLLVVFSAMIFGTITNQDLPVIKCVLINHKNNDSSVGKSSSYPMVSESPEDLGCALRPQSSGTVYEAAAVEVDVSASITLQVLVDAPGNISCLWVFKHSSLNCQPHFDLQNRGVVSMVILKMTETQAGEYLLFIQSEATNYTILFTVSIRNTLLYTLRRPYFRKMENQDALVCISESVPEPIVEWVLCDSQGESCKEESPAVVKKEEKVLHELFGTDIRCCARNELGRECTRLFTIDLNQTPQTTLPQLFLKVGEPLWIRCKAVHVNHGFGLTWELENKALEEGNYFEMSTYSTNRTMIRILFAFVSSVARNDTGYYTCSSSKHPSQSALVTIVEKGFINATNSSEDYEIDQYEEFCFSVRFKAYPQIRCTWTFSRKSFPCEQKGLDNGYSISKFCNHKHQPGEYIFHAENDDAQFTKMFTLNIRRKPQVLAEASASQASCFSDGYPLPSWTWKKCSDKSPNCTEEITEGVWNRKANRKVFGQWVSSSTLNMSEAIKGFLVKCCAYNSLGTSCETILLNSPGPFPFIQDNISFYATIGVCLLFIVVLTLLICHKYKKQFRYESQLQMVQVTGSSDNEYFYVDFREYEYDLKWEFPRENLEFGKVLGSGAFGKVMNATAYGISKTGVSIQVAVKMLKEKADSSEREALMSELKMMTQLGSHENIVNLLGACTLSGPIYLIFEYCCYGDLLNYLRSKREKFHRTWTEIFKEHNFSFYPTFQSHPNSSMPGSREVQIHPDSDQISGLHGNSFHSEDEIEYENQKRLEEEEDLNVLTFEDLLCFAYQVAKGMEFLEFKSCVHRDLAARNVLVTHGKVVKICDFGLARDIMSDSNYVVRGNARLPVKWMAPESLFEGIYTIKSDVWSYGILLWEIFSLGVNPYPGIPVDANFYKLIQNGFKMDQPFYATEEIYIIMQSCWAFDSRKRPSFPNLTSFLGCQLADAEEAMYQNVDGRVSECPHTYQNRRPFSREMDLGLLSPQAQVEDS

[16] = target: Platelet-derived growth factor receptor alpha (Homo sapiens) (UniProt P16234); experiment: Inhibition of PDGFRalpha phosphorylation by cell based assay
Platelet-derived growth factor receptor alpha (Homo sapiens), sequence (P16234 whole entry): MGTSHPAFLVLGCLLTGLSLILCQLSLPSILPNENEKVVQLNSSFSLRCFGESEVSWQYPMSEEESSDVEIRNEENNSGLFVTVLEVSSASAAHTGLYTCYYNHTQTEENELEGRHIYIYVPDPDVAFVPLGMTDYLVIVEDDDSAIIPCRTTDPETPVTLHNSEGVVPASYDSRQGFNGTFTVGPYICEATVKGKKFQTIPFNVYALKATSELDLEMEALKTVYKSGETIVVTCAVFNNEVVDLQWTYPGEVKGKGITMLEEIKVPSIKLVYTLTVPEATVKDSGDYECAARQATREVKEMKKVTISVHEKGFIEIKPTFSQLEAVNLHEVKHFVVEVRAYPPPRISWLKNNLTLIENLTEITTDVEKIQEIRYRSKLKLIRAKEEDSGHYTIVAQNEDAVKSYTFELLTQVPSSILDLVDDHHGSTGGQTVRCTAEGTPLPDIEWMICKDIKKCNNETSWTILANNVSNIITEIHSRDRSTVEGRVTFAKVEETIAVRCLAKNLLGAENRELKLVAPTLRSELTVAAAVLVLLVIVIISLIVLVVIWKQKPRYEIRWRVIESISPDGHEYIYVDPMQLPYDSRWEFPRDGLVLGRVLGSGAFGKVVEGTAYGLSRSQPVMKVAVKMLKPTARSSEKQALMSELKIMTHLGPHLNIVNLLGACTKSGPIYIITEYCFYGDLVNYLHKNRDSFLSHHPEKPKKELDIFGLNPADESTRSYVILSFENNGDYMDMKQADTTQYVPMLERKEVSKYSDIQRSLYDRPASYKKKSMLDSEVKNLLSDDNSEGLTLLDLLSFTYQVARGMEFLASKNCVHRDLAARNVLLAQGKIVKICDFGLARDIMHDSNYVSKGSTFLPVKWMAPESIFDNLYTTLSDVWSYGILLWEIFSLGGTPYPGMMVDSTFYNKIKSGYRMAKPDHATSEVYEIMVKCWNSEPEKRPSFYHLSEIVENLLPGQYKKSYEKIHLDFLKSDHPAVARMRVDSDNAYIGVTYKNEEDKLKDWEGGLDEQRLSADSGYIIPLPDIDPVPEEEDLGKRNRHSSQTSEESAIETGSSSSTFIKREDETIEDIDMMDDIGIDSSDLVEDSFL

[17] = target: Vascular endothelial growth factor receptor 2 (Homo sapiens) (UniProt P35968); experiment: Inhibition of VEGFR2 phosphorylation by cell based assay
[18] = target: Cytochrome P450 2C9 (Homo sapiens, UniProt P11712); experiment: Inhibition of CYP2C9; format: ADME
Cytochrome P450 2C9, sequence (P11712 whole entry): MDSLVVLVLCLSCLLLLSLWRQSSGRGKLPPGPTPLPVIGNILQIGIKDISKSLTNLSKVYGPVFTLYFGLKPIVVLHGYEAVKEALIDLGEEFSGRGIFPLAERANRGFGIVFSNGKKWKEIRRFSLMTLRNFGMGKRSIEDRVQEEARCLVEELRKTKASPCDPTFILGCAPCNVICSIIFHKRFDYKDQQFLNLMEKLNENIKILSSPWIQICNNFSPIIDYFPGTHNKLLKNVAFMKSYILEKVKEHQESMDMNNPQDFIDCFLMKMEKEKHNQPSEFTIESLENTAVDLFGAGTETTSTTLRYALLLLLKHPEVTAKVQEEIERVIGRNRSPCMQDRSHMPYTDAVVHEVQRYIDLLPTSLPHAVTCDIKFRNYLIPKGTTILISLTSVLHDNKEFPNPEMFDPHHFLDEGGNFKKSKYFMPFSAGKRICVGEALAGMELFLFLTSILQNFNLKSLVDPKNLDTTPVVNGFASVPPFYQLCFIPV

[19] = Clearance in rat at 2 mg/kg; format: ADME, organism-based; design: dose 2 mg/kg; conditions: in vivo
[20] = tested on: Rattus norvegicus; experiment: Hepatic blood flow in rat at 0.5 to 2 mg/kg; format: ADME, organism-based, Liver; design: dose 0.5-2 mg/kg; conditions: in vivo
[21] = Clearance in dog at 2 mg/kg; format: ADME, organism-based, Canis lupus familiaris; design: dose 2 mg/kg; conditions: in vivo
[22] = tested on: Canis familiaris; experiment: Hepatic blood flow in dog at 0.5 to 2 mg/kg; format: ADME, organism-based, Canis lupus familiaris, Liver; design: dose 0.5-2 mg/kg; conditions: in vivo
[23] = Volume of distribution at steady state in rat at 2 mg/kg; format: ADME, organism-based; design: dose 2 mg/kg; conditions: in vivo, read-out: Vdss
[24] = Volume of distribution at steady state in dog at 2 mg/kg; format: ADME, organism-based, Canis lupus familiaris; design: dose 2 mg/kg; conditions: in vivo, read-out: Vdss
[25] = Terminal half life in rat at 2 mg/kg, iv; format: ADME, organism-based; design: dose 2 mg/kg, route intravenous; conditions: in vivo, read-out: beta t1/2 (converted)
[26] = Terminal half life in dog at 2 mg/kg, iv; format: ADME, organism-based, Canis lupus familiaris; design: dose 2 mg/kg, route intravenous; conditions: in vivo, read-out: beta t1/2 (converted)
[27] = Half life in rat at 2 mg/kg, po; format: ADME, organism-based; design: dose 2 mg/kg, route oral; conditions: in vivo
[28] = Half life in dog at 2 mg/kg, po; format: ADME, organism-based, Canis lupus familiaris; design: dose 2 mg/kg, route oral; conditions: in vivo
[29] = Oral bioavailability in rat at 2 to 5 mg/kg; format: ADME, organism-based; conditions: in vivo
[30] = Oral bioavailability in dog at 2 to 5 mg/kg; format: ADME, organism-based, Canis lupus familiaris; conditions: in vivo
[31] = Fraction unbound in human serum; format: ADME, cell-free
[32] = Fraction unbound in dog serum; format: ADME, cell-free, Canis lupus familiaris
[33] = target: Voltage-gated inwardly rectifying potassium channel KCNH2 (Homo sapiens, UniProt Q12809); experiment: Inhibition of human ERG
Voltage-gated inwardly rectifying potassium channel KCNH2, sequence (Q12809 whole entry): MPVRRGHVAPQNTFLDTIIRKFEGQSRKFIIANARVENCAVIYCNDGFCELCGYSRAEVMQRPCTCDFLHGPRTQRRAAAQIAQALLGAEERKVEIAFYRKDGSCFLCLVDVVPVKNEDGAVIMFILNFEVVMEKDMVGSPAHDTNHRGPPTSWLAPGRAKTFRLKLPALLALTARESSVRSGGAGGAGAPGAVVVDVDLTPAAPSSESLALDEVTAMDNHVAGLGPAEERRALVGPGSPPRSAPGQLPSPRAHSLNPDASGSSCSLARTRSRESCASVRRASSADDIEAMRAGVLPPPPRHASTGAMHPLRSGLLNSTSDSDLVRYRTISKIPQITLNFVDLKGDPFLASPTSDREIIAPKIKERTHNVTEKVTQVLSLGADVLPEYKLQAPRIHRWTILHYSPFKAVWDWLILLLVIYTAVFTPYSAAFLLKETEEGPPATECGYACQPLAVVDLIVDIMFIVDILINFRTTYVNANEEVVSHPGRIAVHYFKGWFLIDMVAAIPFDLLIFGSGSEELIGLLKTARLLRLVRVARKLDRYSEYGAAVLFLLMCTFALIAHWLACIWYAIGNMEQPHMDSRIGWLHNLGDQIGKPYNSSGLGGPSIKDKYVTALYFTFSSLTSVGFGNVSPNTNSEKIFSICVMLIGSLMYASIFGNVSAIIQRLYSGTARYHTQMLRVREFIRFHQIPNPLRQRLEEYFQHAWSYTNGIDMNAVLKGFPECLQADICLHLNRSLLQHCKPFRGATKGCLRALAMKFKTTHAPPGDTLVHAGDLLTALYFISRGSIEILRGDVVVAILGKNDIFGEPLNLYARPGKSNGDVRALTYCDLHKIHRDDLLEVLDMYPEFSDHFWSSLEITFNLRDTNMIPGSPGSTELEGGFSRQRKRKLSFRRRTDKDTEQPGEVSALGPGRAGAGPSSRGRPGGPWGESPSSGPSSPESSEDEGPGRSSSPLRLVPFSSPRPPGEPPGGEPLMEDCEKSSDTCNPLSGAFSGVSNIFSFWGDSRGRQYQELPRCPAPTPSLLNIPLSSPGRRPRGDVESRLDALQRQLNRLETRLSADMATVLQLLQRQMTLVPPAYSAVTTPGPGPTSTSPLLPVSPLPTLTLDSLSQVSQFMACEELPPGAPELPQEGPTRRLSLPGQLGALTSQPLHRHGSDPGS

[34] = Clearance in rat hepatocytes assessed per million cells; format: ADME, cell-based, Hepatocyte; conditions: read-out: CLH
[35] = tested on: C6; experiment: Antitumor activity against rat C6 cells xenografted in nude mouse assessed as tumor growth inhibition at 12.5 to 50 mg/kg bid for 22 days; format: functional; conditions: dose mg/kg 12.5-50
[36] = tested on: Calu-6; experiment: Antitumor activity against human Calu6 cells xenografted in nude mouse assessed as tumor growth inhibition at 12.5 mg/kg bid; format: functional; conditions: read-out: TGI
[37] = tested on: Calu-6; experiment: Antitumor activity against human Calu6 cells xenografted in nude mouse assessed as tumor growth inhibition at 50 mg/kg bid; format: functional; conditions: read-out: TGI
[38] = tested on: LoVo; experiment: Antitumor activity against human LoVo cells xenografted in nude mouse assessed as tumor growth inhibition at 50 mg/kg bid for 22 days; format: functional; conditions: 528 h, read-out: TGI
[39] = tested on: Mus musculus; experiment: Inhibition of VEGFR2 phosphorylation in C6 cells xenografted in nude mouse lungs at 3 to 50 mg/kg bid after 10 hrs by Western blot analysis; format: functional; conditions: dose mg/kg 3-50
[40] = tested on: Mus musculus; experiment: Inhibition of PDGFRbeta phosphorylation in C6 cells xenografted in nude mouse lungs at 3 to 50 mg/kg bid after 10 hrs by Western blot analysis; conditions: dose mg/kg 3-50
[41] = tested on: Mus musculus; experiment: Inhibition of PDGFRalpha phosphorylation in rat C6 cells xenografted in po dosed nude mouse after 6 hrs; format: functional, organism-based
[42] = tested on: Mus musculus; experiment: Inhibition of PDGFRalpha phosphorylation in rat C6 cells xenografted in nude mouse at 3 mg/kg, po; format: functional, organism-based; design: dose 3 mg/kg; conditions: TDE = time-dependent effect

clearance [1]: 1.7 mL/min/kg
CL/F [2]: 5.2 mL/min/kg
Vd [3]: 0.7 L/kg
bioavailability [4]: > 90%
bioavailability [5]: > 90%
half-life [6]: 4.7 h
half-life [7]: 4.3 h
half-life [8]: 6.8 h
Compound: COc1cc2ncnc(Oc3ccc(CC(=O)Nc4cnn(C(C)C)c4)cc3)c2cc1OC.O=P(O)(O)O

clearance [9]: 75 mL/min/kg
half-life [10]: 0.4 h
bioavailability [11]: < 20%
Stability [12]: 0.1 days
IC50 [13]: 3 nM
IC50 [14]: 400 nM
IC50 [15]: 10 nM
inhibition [16]: Active
IC50 [17]: 31 nM
Compound: COc1cccc(NC(=O)Cn2cc(Oc3ncnc4cc(OC)c(OCCN5CCCCC5)cc34)cn2)c1

IC50 [18]: 8000 nM
clearance [19]: 8.9 mL/min/kg
QH [20]: 6%
clearance [21]: 3.3 mL/min/kg
QH [22]: 9%
Vd [23]: 0.8 L/kg
Vd [24]: 0.9 L/kg
half-life [25]: 1.3 h
half-life [26]: 4.2 h
half-life [27]: 6 h
half-life [28]: 6.8 h
bioavailability [29]: 34%
bioavailability [30]: 23%
fraction unbound [31]: 0.033
fraction unbound [32]: 0.07
hepatocyte CLint [34]: 3.5 µL/min/1e6 cells
Compound: COc1cc2ncnc(Oc3ccc(CC(=O)Nc4cnn(C(C)C)c4)cc3)c2cc1OC [listing 1 of 2 here]
IC50 [33]: 137000 nM
TGI [35]: 64%
inhibition in vivo at 12.5 mg/kg [36]: 72%
inhibition in vivo at 50 mg/kg [37]: 81%
inhibition in vivo at 50 mg/kg [38]: 67%
inhibition (INH) [39]: 60%
inhibition (INH) [40]: 60%

INH [16]: 2 nM
Compound: COc1cc2ncnc(Oc3ccc(CC(=O)Nc4cnn(C(C)C)c4)cc3)c2cc1OC [listing 2 of 2 here]
inhibition [41]: Dose-dependent effect
inhibition [42]: tde

— ChEMBL document CHEMBL1938371, “Discovery of AZD2932, a new Quinazoline Ether Inhibitor with high affinity for VEGFR-2 and PDGFR tyrosine kinases” (Bioorg Med Chem Lett, 2012)
